Measured values reported in US20130281409A1, “Myelin Sheath Fatty Acids that Resolve Neuroinflammation” (priority 2012, published 2013).
Entries after “also recorded” stand apart in the source; their conditions may differ.

How the values were obtained:
Format in all cases: cell-based, mouse
CD3+ T cells = test: Proliferation of anti-CD3/anti-CD28-stimulated purified T cells; conditions: anti-CD3 or anti-CD3 and anti-CD28, 30 μg/ml lipid, 48 hours
Protocol: Splenocytes were harvested from mice transgenic for the MBPAc1-11-specific T-cell receptor and stimulated with 2 μg/ml of MBPAc1-11 in the presence of 30 μg/ml of lipid. Lymph nodes and spleens were also harvested from naive C57BL/6 mice, and CD3^+ T-cell enrichment columns (R&D systems) were used to isolate CD3^+ T cells. […] Cytokine assays were performed on culture supernatants after 24 (IL-12p40) or 48 hours (IFN-γ, IL-6, and TNF) of culture by using the BD OptEIA™ Mouse ELISA kits (BD Biosciences). Cd1d^−/− T cells: We harvested splenocytes from Cd1d^−/− mice and their wild-type littermates and used CD3^+ T-cell enrichment columns (R&D systems) to isolate T cells. […] Anti-CD3/anti-CD28-stimulated purified T cells: We harvested lymph nodes and spleens from naive C57BL/6 mice and used CD3^+ T-cell enrichment columns (R&D systems) to isolate CD3^+ T cells.

[1] = system: naive MBPAc1-11-TCR transgenic splenocytes; test: MBPAc1-11-induced cytokine production by MBPAc1-11-TCR transgenic splenocytes; conditions: 30 μg/ml lipid; for MBPAc1-11-induced IFN-γ production / MBPAc1-11-induced IL-6 production / MBPAc1-11-induced TNF production: 2 μg/ml MBPAc1-11, 48 hours
Protocol: Splenocytes were harvested from mice transgenic for the MBPAc1-11-specific T-cell receptor and stimulated with 2 μg/ml of MBPAc1-11 in the presence of 30 μg/ml of lipid. Lymph nodes and spleens were also harvested from naive C57BL/6 mice, and CD3^+ T-cell enrichment columns (R&D systems) were used to isolate CD3^+ T cells. […] Cytokine assays were performed on culture supernatants after 24 (IL-12p40) or 48 hours (IFN-γ, IL-6, and TNF) of culture by using the BD OptEIA™ Mouse ELISA kits (BD Biosciences).

RAW 264.7 cells = test: Proliferation of LPS-stimulated RAW 264.7 macrophage cells; conditions: 30 μg/ml lipid, 100 ng/ml LPS, 48 hours
Protocol: LPS-stimulated RAW 264.7 mouse macrophage cells: 1×10^5 cells/ml of RAW 264.7 cells were stimulated with 100 ng/ml of lipopolysaccharide (LPS) in the presence of 30 μg/ml of POPS, PGPC, azPC ester, or azPC.

[2] = system: splenocytes from PLP139-151-immunized SJL mice; test: PLP139-151-induced proliferation of splenocytes of PLP139-151-immunized mice; conditions: 30 μg/ml lipid, 48 hours
Protocol: PLP-stimulated cells from PLP139-151-immunized mice administered PGPC prophylactically: SJL/J mice were co-injected with PGPC and PLP139-151 in CFA and sacrificed 48 days later. Lymph node cells and splenocytes were then harvested and re-stimulated in vitro (2.5×10^6 cells/ml) with 10 μg/ml of PLP139-151 or with media alone. PLP-stimulated cells from untreated PLP139-151-immunized mice: SJL/J mice were immunized with PLP139-151 in CFA and sacrificed 10 days later. Splenocytes were then harvested and re-stimulated in vitro (at 5×10^5 cells/ml) with 10 μg/ml of PLP139-151 in the presence of 30 μg/ml of POPS, PGPC, azPC ester, or azPC.

[3] = system: splenocytes from PLP139-151-immunized SJL mice; test: PLP139-151-induced cytokine production by splenocytes of PLP139-151-immunized mice; conditions: 30 μg/ml lipid, 48 hours
Protocol: PLP-stimulated cells from PLP139-151-immunized mice administered PGPC prophylactically: SJL/J mice were co-injected with PGPC and PLP139-151 in CFA and sacrificed 48 days later. Lymph node cells and splenocytes were then harvested and re-stimulated in vitro (2.5×10^6 cells/ml) with 10 μg/ml of PLP139-151 or with media alone. PLP-stimulated cells from untreated PLP139-151-immunized mice: SJL/J mice were immunized with PLP139-151 in CFA and sacrificed 10 days later. Splenocytes were then harvested and re-stimulated in vitro (at 5×10^5 cells/ml) with 10 μg/ml of PLP139-151 in the presence of 30 μg/ml of POPS, PGPC, azPC ester, or azPC. Cytokine production by cells from the lymph nodes and spleens of PGPC co-immunized mice was measured after 66 hours of stimulation by using the BD OptEIA™ Mouse IFN-γ ELISA kit (BD Biosciences). Cytokine assays for the anti-CD3/anti-CD28 antibody-stimulated T cells and PLP139-151-stimulated splenocytes were performed on culture supernatants after 48 hours of stimulation using the BD OptEIA™ Mouse IL-6, IFN-γ, and TNF alpha ELISA kits (BD Biosciences) and the Mouse IL-17 DuoSet ELISA Development kit (R&D Systems).

[4] = system: MBPAc1-11-TCR transgenic splenocytes; test: MBPAc1-11-specific T-cell proliferation (3H-thymidine incorporation); conditions: 30 μg/ml lipid, 2 μg/ml MBPAc1-11
Protocol: Splenocytes were harvested from mice transgenic for the MBPAc1-11-specific T-cell receptor and stimulated with 2 μg/ml of MBPAc1-11 in the presence of 30 μg/ml of lipid. Lymph nodes and spleens were also harvested from naive C57BL/6 mice, and CD3^+ T-cell enrichment columns (R&D systems) were used to isolate CD3^+ T cells. The purified CD3^+ T cells were stimulated with 5 μg/ml of plate-bound anti-CD3 antibodies and anti-CD28 antibodies in the presence of 30 μg/ml of POPS, PGPC, azPC ester, brain sulfatides, or azPC, 0.25 mM palmitic acid, or 100% ethanol (as the vehicle control). For assessment of proliferation, 1 μCi of ^3H-thymidine was added to each well for the final 18-24 hours of culture, and incorporation of radioactivity was measured by using a Betaplate scintillation counter. Cytokine assays were performed on culture supernatants after 24 (IL-12p40) or 48 hours (IFN-γ, IL-6, and TNF) of culture by using the BD OptEIA™ Mouse ELISA kits (BD Biosciences).
5×10^6 cells/ml were stimulated in vitro with 2 μg/ml of MBPAc1-11 in the presence of various concentrations of palmitic acid (Sigma), other lipids, or 100% Ethanol (vehicle alone).
For assessment of proliferation, 1 μCi of ^3H-thymidine was added to each well for the final 18 hours of culture, and incorporation of radioactivity was quantified using a Betaplate scintillation counter.

| Structure (SMILES) | T-cell proliferation, wild-type and Cd1d−/− T cells (CD3+ T cells) | MBPAc1-11-induced cytokine levels (cytokines not specified) ([1]; effects less dramatic than POPS and azPC) | proliferation of LPS-activated RAW 264.7 cells (RAW 264.7 cells) | PLP139-151-induced proliferation of splenocytes [2] | PLP139-151-induced cytokine production (IL-17, IL-6, IFN-γ, TNF) [3] | T-cell proliferation in response to MBPAc1-11 [4] | IL-12p40 production ([1]; 2 μg/ml MBPAc1-11, 24 hours) | MBPAc1-11-induced IFN-γ production [1] | MBPAc1-11-induced IL-6 production [1] | MBPAc1-11-induced TNF production [1] |
| --- | --- | --- | --- | --- | --- | --- | --- | --- | --- | --- |
| CCCCCCCCCCCCCCCC(=O)OC[C@H](COP(=O)([O-])OCC[N+](C)(C)C)OC(=O)CCCC(=O)O [PGPC, 1-Palmitoyl-2-Glutaroyl-sn-Glycero-3-Phosphocholine] | suppress T-cell proliferation independently of CD1d | reduced levels of some of the cytokines | suppress proliferation | suppress | suppress | reduced T-cell proliferation | – | – | – | – |
| CCCCCCCC/C=C\CCCCCCCC(=O)O[C@H](COC(=O)CCCCCCCCCCCCCCC)COP(=O)(O)OC[C@H](N)C(=O)O [POPS, 1-Palmitoyl-2-Oleoyl-sn-Glycero-3-[Phospho-L-Serine]] | suppress T-cell proliferation independently of CD1d | – | suppress proliferation | suppress | suppress | reduced T-cell proliferation | Neither POPS nor the oxidized phosphatidylcholine derivatives affected production | did not significantly reduce | reduced | reduced |
| CCCCCCCCCCCCCCCC(=O)OC[C@H](COP(=O)([O-])OCC[N+](C)(C)C)OC(=O)CCCCCCCC(=O)O [azPC, 1-Palmitoyl-2-Azelaoyl-sn-Glycero-3-Phosphocholine] | suppress T-cell proliferation independently of CD1d | – | suppressed proliferation; also recorded: suppress proliferation | suppress | suppress | reduced T-cell proliferation | – | reduced | reduced | reduced |
